Source: ChEMBL document CHEMBL1201862, “PubChem BioAssay data set” (2004)
The source made the active and inactive calls. Rule as the data show it: actives have a measured IC50 and inactives only a lower limit.

Molecular target: Envelope glycoprotein gp160 (Human immunodeficiency virus 1, UniProt Q6QLK5)
Experiment: inhibitors of HIV fusion peptide binding, primary screen, biochemical, uHTS, fluorescence dequenching (AID 1986)

Envelope glycoprotein gp160, sequence (Q6QLK5 whole entry, the tested form may be a part): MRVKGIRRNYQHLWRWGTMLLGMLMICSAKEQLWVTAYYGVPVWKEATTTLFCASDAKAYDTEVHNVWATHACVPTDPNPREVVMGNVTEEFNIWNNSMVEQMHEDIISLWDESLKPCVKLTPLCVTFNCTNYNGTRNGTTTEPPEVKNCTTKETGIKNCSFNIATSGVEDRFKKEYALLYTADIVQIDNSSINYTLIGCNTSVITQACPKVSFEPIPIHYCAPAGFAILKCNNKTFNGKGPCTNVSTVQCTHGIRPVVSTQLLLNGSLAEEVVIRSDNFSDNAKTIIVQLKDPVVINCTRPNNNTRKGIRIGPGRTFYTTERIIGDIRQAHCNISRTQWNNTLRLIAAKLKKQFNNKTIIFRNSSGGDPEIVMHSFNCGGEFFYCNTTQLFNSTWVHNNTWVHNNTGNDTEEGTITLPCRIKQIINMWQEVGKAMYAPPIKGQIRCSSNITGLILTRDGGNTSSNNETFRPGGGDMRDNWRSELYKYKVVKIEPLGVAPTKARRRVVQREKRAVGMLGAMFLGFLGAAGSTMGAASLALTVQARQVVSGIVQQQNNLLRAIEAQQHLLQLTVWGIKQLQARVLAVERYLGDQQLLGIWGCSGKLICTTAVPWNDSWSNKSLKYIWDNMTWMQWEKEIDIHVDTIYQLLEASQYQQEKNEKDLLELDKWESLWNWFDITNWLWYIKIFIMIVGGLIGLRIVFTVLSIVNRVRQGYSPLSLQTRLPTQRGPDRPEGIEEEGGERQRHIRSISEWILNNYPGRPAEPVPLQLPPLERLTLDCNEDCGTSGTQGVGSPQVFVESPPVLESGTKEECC

Row | Structure (SMILES) | IC50
1 | O=C(O)C1Nc2c(cccc2C(F)(F)F)C2C=CCC12 (stereo not given) | 12.7 µM (active)
2 | O=C(O)c1[nH]c2ccccc2c1C(c1cc(Cl)cc([N+](=O)[O-])c1O)c1c(C(=O)O)[nH]c2ccccc12 | 2.55 µM (active)
3 | CCC(Sc1nc2ccsc2c(=O)n1Cc1ccc(C(=O)O)cc1)C(=O)Nc1ccc(C)c(Cl)c1 (stereo not given) | 20 µM (active)
4 | COc1cc(/C=N/NC(=O)C(Cc2c[nH]c3ccccc23)NC(=O)OCc2ccccc2)cc([N+](=O)[O-])c1O (stereo not given) | 17.2 µM (active)
5 | COc1cc(/C=N/NS(=O)(=O)c2ccc3ccccc3c2)ccc1OCc1ccc(C(=O)O)cc1 | 27 µM (active)
